In ChEMBL document CHEMBL3393028, “Discovery and characterization of MAPK-activated protein kinase-2 prevention of activation inhibitors” (J Med Chem, 2015):
Values after ≈ are worked out from the molar mass of the structure shown. Active and inactive are the calls of the source. No cut-off for these calls is given here.

What was measured:
[1] = biological target: T1, Mitogen-activated protein kinase 14 (Homo sapiens, UniProt Q16539); experiment: Inhibition of p38-alpha (unknown origin) by p38alpha-MBP IoC assay
[2] = biological target: T1, Mitogen-activated protein kinase 14; experiment: Inhibition of human recombinant 5'-c-myc, His6-tagged p38-alpha using MSK1 as substrate assessed as inhibition of phosphorylation after 60 mins by ELISA in presence of ATP
[3] = biological target: T1, Mitogen-activated protein kinase 14; experiment: Inhibition of human recombinant 5'-c-myc, His6-tagged p38-alpha using MK2 (46 to 400) as substrate assessed as inhibition of phosphorylation after 60 mins by ELISA in presence of ATP
Cytochrome P450 3A4 = Cytochrome P450 3A4 (Homo sapiens, UniProt P08684); experiment: Inhibition of CYP3A4 (unknown origin); assay type: ADME
[4] = biological target: T1, Mitogen-activated protein kinase 14; experiment: Inhibition of p38-alpha in human TC28 cells assessed as inhibition of IL-1-induced PGE2 production incubated for 20 mins prior to IL-1 challenge measured after 24 hrs by ELISA; assay type: cell-based
[5] = Intrinsic clearance in rat hepatocytes assessed per 10^6 cells; assay type: ADME, cell-based, Hepatocyte; conditions: read-out: CLH
[6] = Fraction unbound in rat plasma by equilibrium dialysis method; assay type: ADME, cell-free
[7] = Intrinsic clearance in human liver microsomes; assay type: ADME; conditions: read-out: CLH
[8] = Fraction unbound in human plasma by equilibrium dialysis method; assay type: ADME, cell-free
[9] = Thermodynamic solubility of the compound at pH 7.4; assay type: physicochemical; conditions: buffer, read-out: Therm_solubility
[10] = biological target: Insulin-like growth factor 1 receptor (Homo sapiens) (UniProt P08069); conditions: 10 uM
Description: Inhibition of IGF1R (unknown origin) at 10 uM

[11] = biological target: MAP kinase-activated protein kinase 2 (Homo sapiens) (UniProt P49137); experiment: Binding affinity to phosphorylated full length 2H,15N-labeled MK2 (unknown origin) expressed in Escherichia coli by 2D-NMR analysis
[12] = biological target: T1, Mitogen-activated protein kinase 14; experiment: Displacement of 1-[7-[3-[4-(aminomethyl)-1-piperidyl]propoxy]-6-methoxy-quinazolin-4-yl]-3-(2-chloro-6-methylphenyl)urea from GST-tagged phosphorylated p38-alpha (unknown origin) by surface plasmon resonance based ISA method
[13] = biological target: T1, Mitogen-activated protein kinase 14; experiment: Competitive inhibition of human recombinant 5'-c-myc, His6-tagged p38-alpha using MK2 (46-400) as substrate
[14] = biological target: T1, Mitogen-activated protein kinase 14; experiment: Inhibition of p38-alpha in human PBMC assessed as inhibition of LPS-induced TNF-alpha production incubated for 30 mins prior to LPS challenge measured after 7 hrs by ELISA
[15] = Lipophilicity, log D of the compound at pH 7.4; assay type: physicochemical; conditions: buffer

T1 sequence (Q16539 whole entry): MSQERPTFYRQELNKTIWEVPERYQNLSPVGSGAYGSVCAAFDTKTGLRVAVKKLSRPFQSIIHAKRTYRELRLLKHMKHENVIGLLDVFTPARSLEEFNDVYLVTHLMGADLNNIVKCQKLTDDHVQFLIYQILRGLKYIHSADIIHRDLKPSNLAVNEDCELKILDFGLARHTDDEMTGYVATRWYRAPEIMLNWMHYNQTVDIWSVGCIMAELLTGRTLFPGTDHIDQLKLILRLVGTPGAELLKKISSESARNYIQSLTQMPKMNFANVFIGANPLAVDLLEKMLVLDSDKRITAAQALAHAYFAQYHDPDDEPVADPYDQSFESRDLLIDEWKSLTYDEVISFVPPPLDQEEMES
Sequence of Cytochrome P450 3A4 (P08684 whole entry): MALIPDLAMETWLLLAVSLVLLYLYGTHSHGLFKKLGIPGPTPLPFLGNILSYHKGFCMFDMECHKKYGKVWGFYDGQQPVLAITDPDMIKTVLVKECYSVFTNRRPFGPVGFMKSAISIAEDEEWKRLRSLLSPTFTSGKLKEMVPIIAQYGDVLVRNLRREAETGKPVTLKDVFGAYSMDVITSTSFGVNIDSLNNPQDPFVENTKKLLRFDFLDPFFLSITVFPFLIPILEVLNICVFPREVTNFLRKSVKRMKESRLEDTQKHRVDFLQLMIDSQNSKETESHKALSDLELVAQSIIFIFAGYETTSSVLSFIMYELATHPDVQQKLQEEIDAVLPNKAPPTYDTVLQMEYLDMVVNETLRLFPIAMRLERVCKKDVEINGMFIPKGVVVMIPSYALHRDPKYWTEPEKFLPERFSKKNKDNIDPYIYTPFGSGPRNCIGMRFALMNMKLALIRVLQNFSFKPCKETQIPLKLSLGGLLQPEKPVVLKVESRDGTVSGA
Sequence of Insulin-like growth factor 1 receptor (Homo sapiens) (P08069 31-736 limits assumed): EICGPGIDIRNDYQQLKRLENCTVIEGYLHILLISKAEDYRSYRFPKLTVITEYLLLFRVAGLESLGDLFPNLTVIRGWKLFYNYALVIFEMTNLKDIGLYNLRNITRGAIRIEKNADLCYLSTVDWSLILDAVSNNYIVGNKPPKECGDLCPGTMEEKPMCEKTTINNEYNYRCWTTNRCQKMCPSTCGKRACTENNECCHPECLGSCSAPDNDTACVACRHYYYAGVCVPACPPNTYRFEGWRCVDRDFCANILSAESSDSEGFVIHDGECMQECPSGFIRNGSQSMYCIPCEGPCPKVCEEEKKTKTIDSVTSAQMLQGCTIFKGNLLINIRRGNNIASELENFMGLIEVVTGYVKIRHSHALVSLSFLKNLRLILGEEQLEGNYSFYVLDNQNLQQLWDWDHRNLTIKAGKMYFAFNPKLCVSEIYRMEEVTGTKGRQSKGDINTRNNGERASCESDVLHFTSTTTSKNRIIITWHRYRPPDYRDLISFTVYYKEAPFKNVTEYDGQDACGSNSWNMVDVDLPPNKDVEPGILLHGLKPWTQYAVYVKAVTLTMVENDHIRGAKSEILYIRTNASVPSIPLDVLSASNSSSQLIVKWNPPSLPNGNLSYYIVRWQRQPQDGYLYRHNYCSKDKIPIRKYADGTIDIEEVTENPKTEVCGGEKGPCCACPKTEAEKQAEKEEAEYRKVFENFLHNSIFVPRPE
Sequence of Insulin-like growth factor 1 receptor (Homo sapiens) (P08069 741-1367 limits assumed): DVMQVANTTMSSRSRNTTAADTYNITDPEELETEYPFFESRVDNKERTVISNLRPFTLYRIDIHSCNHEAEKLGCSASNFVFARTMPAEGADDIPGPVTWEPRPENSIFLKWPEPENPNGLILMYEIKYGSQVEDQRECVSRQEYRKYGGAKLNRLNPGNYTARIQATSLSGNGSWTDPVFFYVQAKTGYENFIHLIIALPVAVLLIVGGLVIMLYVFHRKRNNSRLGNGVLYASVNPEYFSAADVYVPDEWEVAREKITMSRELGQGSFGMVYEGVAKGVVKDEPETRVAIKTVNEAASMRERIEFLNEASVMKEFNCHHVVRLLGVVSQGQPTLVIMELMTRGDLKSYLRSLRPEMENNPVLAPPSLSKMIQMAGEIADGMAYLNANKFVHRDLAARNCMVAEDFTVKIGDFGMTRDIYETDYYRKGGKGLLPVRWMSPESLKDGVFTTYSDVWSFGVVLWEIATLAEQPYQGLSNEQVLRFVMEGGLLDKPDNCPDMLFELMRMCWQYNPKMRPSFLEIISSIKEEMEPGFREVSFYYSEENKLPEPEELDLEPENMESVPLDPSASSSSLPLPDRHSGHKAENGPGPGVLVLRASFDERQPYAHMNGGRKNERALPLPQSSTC
Sequence of MAP kinase-activated protein kinase 2 (Homo sapiens) (P49137 whole entry, looked up): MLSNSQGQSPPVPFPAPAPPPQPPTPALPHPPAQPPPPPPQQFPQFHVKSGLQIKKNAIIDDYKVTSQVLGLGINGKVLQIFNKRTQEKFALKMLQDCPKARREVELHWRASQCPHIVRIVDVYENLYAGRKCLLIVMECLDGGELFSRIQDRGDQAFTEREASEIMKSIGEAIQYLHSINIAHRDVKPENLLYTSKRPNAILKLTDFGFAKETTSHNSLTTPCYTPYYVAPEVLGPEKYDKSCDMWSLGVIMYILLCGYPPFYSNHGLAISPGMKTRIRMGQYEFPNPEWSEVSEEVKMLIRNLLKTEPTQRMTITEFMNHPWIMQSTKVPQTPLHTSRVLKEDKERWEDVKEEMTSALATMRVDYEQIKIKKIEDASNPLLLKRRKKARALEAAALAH

Row | IC50 [1] | IC50 [2] | IC50 [3] | IC50 (Cytochrome P450 3A4) | Compound | other results
1 | > 10 µM | 23 µM | 190 nM |  | CCCc1c(C(=O)Nc2cc(S(C)(=O)=O)ccc2C)cnn1-c1ccccc1 | 
2 | > 10 µM | 2.3 µM | 2100 nM | 1000 nM | O=C(NCc1ccncc1)c1ccc(Oc2ccc(F)cc2)cc1 | 
3 | > 10 µM | 2.5 µM | 110 nM |  | CCCc1c(C(=O)Nc2cc(F)ccc2C)cnn1-c1ccccc1 | 
4 | > 10 µM | 20 µM | 390 nM |  | CCCc1c(C(=O)Nc2cc(S(=O)(=O)N(C)C)ccc2C)cnn1-c1ccc(Cl)cc1 | 
5 | > 10 µM | 15 µM | 560 nM | > 10000 nM | N#Cc1ccccc1Oc1ccc(C(=O)NCc2cccnc2)cc1 | IC50 [4]: 4.7 µM
6 | > 10 µM | 0.89 µM | 15 nM |  | CCCc1c(C(=O)Nc2cc(C#N)ccc2C)cnn1-c1ccccc1 | IC50 [4]: 0.21 µM
7 | > 10 µM | 0.5 µM | 490 nM |  | CCCc1c(C(=O)Nc2cc(C(=O)OC)ccc2C)cnn1-c1ccccc1 | 
8 | > 10 µM | > 100 µM | 2800 nM | > 10000 nM | N#Cc1ccccc1Oc1ccc(C(=O)NCc2ccncn2)cc1 | hepatocyte CLint [5]: 23 µL/min/1e6 cells; fraction unbound [6]: 0.2; microsomal CLint [7]: < 2 µL/min/mg; IC50 [4]: 7.1 µM; fraction unbound [8]: 0.27; solubility thermodynamic [9]: 360 µM (≈ 119 µg/mL)
9 | > 10 µM | 5.4 µM | 2000 nM |  | Cc1ccccc1Oc1ccc(C(=O)NCc2ccncc2)cc1 | 
10 | > 10 µM | 10 µM | 2400 nM | 1000 nM | O=C(NCc1ccncc1)c1ccc(Oc2ccc(Cl)cc2)cc1 | 
11 | > 10 µM | 6.3 µM | 53 nM |  | CCCc1c(C(=O)Nc2cc(S(=O)(=O)N(C)C)ccc2C)cnn1Cc1ccccc1 | 
12 | > 10 µM | > 100 µM | > 100000 nM |  | CCCc1c(C(=O)Nc2cc(OCc3ccccc3)ccc2C)cnn1-c1ccccc1 | 
13 |  |  |  |  | CCCc1c(C(=O)Nc2cc(S(=O)(=O)N(C)C)ccc2C)cnn1-c1ccccc1 | hepatocyte CLint [5]: 42 µL/min/1e6 cells; fraction unbound [6]: 0.031; microsomal CLint [7]: 62 µL/min/mg; inhibition [10]: 30%; fraction unbound [8]: 0.023; solubility thermodynamic [9]: 0.55 µM (≈ 0.235 µg/mL); Activity [11]: inactive
14 | > 10 µM | < 0.046 µM | < 46 nM |  | CCCc1c(C(=O)Nc2cc(O)ccc2C)cnn1-c1ccccc1 | 
15 | > 10 µM | > 100 µM | 450 nM | > 10000 nM | N#Cc1ccccc1Oc1ccc(C(=O)NCc2ccccc2)cc1 | IC50 [4]: 1.4 µM
16 | > 10 µM | 21 µM | 600 nM | 1000 nM | N#Cc1ccccc1Oc1ccc(C(=O)NCc2ccncc2)cc1 | hepatocyte CLint [5]: 28 µL/min/1e6 cells; fraction unbound [6]: 0.14; microsomal CLint [7]: < 2 µL/min/mg; IC50 [4]: 25 µM; Kd [12]: > 20 µM; inhibition [10]: 30%; fraction unbound [8]: 0.085; solubility thermodynamic [9]: 120 µM (≈ 39.5 µg/mL); Ki [13]: 290 nM; IC50 [14]: 5.4 µM; Activity [11]: inactive
17 | > 10 µM | > 30 µM | 270 nM |  | CCCc1c(C(=O)Nc2cc(S(=O)(=O)N(C)C)ccc2C)cnn1-c1cccnc1 | hepatocyte CLint [5]: 10 µL/min/1e6 cells; fraction unbound [6]: 0.24; microsomal CLint [7]: 143 µL/min/mg; fraction unbound [8]: 0.26; solubility thermodynamic [9]: 21 µM (≈ 8.98 µg/mL); logD [15]: 2.3
18 | > 10 µM | 1.7 µM | 1700 nM |  | O=C(NCc1ccncc1)c1ccc(Oc2ccccc2Cl)cc1 | 
19 | > 10 µM | 5.4 µM | 76 nM |  | CCCc1c(C(=O)Nc2cc(S(=O)(=O)N(C)C)ccc2C)cnn1CC(C)C | 
20 | > 10 µM | 4.2 µM | 86 nM |  | CCCc1c(C(=O)Nc2cc(C(=O)O)ccc2C)cnn1-c1ccccc1 | IC50 [14]: 21 µM
